Reference: patent publication US20110065796A1 (SHIRE LLC, priority 2009, published 2011)

Columns and labels:
[1] = Prodrug stability in simulated gastric fluid; settings: 37° C., pH 1.1, HPLC
Method: (§1) The remaining concentrations of the prodrugs were then assayed by H PLC.

[2] = Prodrug stability in freshly withdrawn porcine intestinal fluid; type: in vitro ADME; settings: for Prodrug remaining at 3 h: porcine intestinal fluid pH 6.8, 37° C., in % (unit assumed)
Text: Many of the peptidases in the intestinal lumen may not be present in the USP simulated intestinal fluid preparations previously described. […] The prodrugs evaluated were selected on the basis of adequate pharmacokinetics (see Example 8).

[3] = Comparative pharmacokinetic screening study in the monkey (relative Cmax of guanfacine); settings: oral gavage, monkey screening study
Method: Blood samples were taken on 4 sampling occasions at various times up to 6 hours after administration and submitted to analysis for the parent drug and prodrug using a qualified LC-MS-MS assay.

[4] = Prodrug stability in simulated intestinal fluid; settings: 37° C., pH 6.8, HPLC
Method: as §1

Structure (SMILES)	% prodrug remaining following incubation for 1 h in simulated gastric fluid pH 1.1 [1] [%]	stability in porcine intestinal fluid (in words) [2]	prodrug levels in plasma (in words) [3]	% prodrug remaining following incubation for 2 h in simulated intestinal fluid pH 6.8 [4] [%]	Prodrug remaining at 3 h [2]
CC(C)[C@H](N)C(=O)N[C@@H](COC(=O)NC(=N)NC(=O)Cc1c(Cl)cccc1Cl)C(=O)O [Compound 17, Guanfacine ((S)-Serine-(S)-Valine) Carbamate]	93	very unstable	total absence of prodrug in the plasma	78	–
CC(C)[C@@H](N)C(=O)NCCC(=O)NC(=N)NC(=O)Cc1c(Cl)cccc1Cl [Compound 11, Guanfacine (β-Alanine-(R)-Valine) Amide]	79	high stability	detectable prodrug levels in plasma	104	91.3 ± 2.6
CN(CC(=O)O)C(=O)NC(=N)NC(=O)Cc1c(Cl)cccc1Cl [Compound 9, Guanfacine Sarcosine Urea]	101	–	high prodrug levels	105	–
N=C(NC(=O)Cc1c(Cl)cccc1Cl)NC(=O)c1ccc(N)cc1 [Compound 52, Guanfacine PABA Amide]	84	high stability	–	97	87.77 ± 5.80
N=C(NC(=O)CC[C@H](NC(=O)[C@@H]1CCC(=O)N1)C(=O)O)NC(=O)Cc1c(Cl)cccc1Cl [Compound 6, Guanfacine ((S)-γ-Glutamate-(S)-Pyroglutamic acid) Amide]	81	–	–	98	–
N=C(NC(=O)CC[C@H](NC(=O)[C@H](N)CCCCN)C(=O)O)NC(=O)Cc1c(Cl)cccc1Cl [Compound 43, Guanfacine ((S)-γ-Glutamate-(R)-Lysine) Amide]	62	–	–	85	–
CC(=O)N[C@@H](COC(=O)NC(=N)NC(=O)Cc1c(Cl)cccc1Cl)C(=O)O [Compound 15, Guanfacine Acetyl-(S)-Serine Carbamate]	83	–	–	112	–
O=C(O)CC[C@@H]1N=C(NC(=O)Cc2c(Cl)cccc2Cl)NC1=O [Compound 37, Guanfacine-(S)-Glutamic Cyclic Adduct]	58	–	high prodrug levels	110	–
N=C(NC(=O)Cc1c(Cl)cccc1Cl)NC(=O)OCCNC(=O)CC[C@H](N)C(=O)O [Compound 58, Guanfacine (Ethanolamine-(S)-γ-Glutamate) Carbamate]	96	–	–	99	81.26 ± 4.57
CNCC(=O)N[C@@H](CCOC(=O)NC(=N)NC(=O)Cc1c(Cl)cccc1Cl)C(=O)O [Compound 66, Guanfacine ((S)-Homoserine-Sarcosine) Carbamate]	86	–	–	101	–
CNCC(=O)N[C@@H](CCC(=O)NC(=N)NC(=O)Cc1c(Cl)cccc1Cl)C(=O)O [Compound 7, Guanfacine ((S)-γ-Glutamate-Sarcocine) Amide]	79	–	–	66	48.9 ± 0.8
N=C(NC(=O)Cc1c(Cl)cccc1Cl)NC(=O)NC(C(=O)O)c1ccccc1 (stereo not drawn) [Compound 8, Guanfacine Phenylglycine Urea]	96	–	–	100	–
CC(C)[C@@H](N)C(=O)NCCCC(=O)NC(=N)NC(=O)Cc1c(Cl)cccc1Cl [Compound 22, Guanfacine (GABA-(R)-Valine) Amide]	106	–	–	85	–
CC(C)[C@@H](N)C(=O)N[C@@H](C(=O)NC(=N)NC(=O)Cc1c(Cl)cccc1Cl)C(C)C [Compound 54, Guanfacine ((R)-Valine-(R)-Valine) Amide]	73	–	–	66	–
CC(C)[C@@H](NC(=O)c1ccc(N)cc1)C(=O)NC(=N)NC(=O)Cc1c(Cl)cccc1Cl [Compound 55, Guanfacine ((R)-Valine-PABA) Amide]	65	–	–	91	–
N=C(NC(=O)CCNC(=O)[C@@H]1CCC(=O)N1)NC(=O)Cc1c(Cl)cccc1Cl [Compound 10, Guanfacine (β-Alanine-(S)-Pyroglutamic acid) Amide]	82	–	–	112	–
CC(C)[C@H](N)C(=O)NCCCC(=O)NC(=N)NC(=O)Cc1c(Cl)cccc1Cl [Compound 56, Guanfacine (GABA-(S)-Valine) Amide]	70	–	–	111	–
CC(C)[C@H](N)C(=O)N[C@H](CCC(=O)NC(=N)NC(=O)Cc1c(Cl)cccc1Cl)C(=O)O [Compound 32, Guanfacine ((R)-γ-Glutamate-(S)-Valine) Amide]	93	–	–	84	–
CC(C)[C@@H](N)C(=O)N[C@@H](COC(=O)NC(=N)NC(=O)Cc1c(Cl)cccc1Cl)C(=O)O [Compound 18, Guanfacine ((S)-Serine-(R)-Valine) Carbamate]	74	–	–	108	–
O=C(O)CC1N=C(NC(=O)Cc2c(Cl)cccc2Cl)NC1=O (stereo not drawn) [Compound 4, Guanfacine Fumaryl Cyclic Adduct]	97	–	–	84	–
N=C(NC(=O)Cc1c(Cl)cccc1Cl)NC(=O)Nc1ccc(C(=O)O)cc1 [Compound 53, Guanfacine PABA Urea]	101	–	–	100	–
N=C(NC(=O)CC[C@H](NC(=O)c1ccc(C(=O)O)cc1)C(=O)O)NC(=O)Cc1c(Cl)cccc1Cl [Compound 60, Guanfacine ((S)-γ-Glutamate-Terephthalic acid) Amide]	81	–	–	97	–
CC(C)[C@H](N)C(=O)NCCOC(=O)NC(=N)NC(=O)Cc1c(Cl)cccc1Cl [Compound 26, Guanfacine (Ethanolamine-(S)-Valine) Carbamate]	97	very unstable	–	91	13.8 ± 0.6
N=C(NC(=O)CC[C@H](NC(=O)[C@H](N)CO)C(=O)O)NC(=O)Cc1c(Cl)cccc1Cl [Compound 47, Guanfacine ((S)-γ-Glutamate-(R)-Serine) Amide]	72	–	–	89	–
CC[C@H](C)[C@H](N)C(=O)NCCOC(=O)NC(=N)NC(=O)Cc1c(Cl)cccc1Cl [Compound 59, Guanfacine (Ethanolamine-(S)-Isoleucine) Carbamate]	92	–	–	100	–
